Here are results for 31 molecules from ChEMBL document CHEMBL6083250, “Core Modifications of GSK3335103 toward Orally Bioavailable αvβ6 Inhibitors with Improved Synthetic Tractability” (J Med Chem, 2024).

Series [1] can be described thus: Lipophilicity, logD of compound at pH 7.4 by chromatography. It counts as physicochemical. The following applies: buffer.
The nature of series [2]: Dissociation constant, pKa of compound. Type of series: physicochemical.
Series [3] is described as follows: MRT in Wistar Han rat at 1 mg/kg, iv at 7 to 24 hrs by LC-MS/MS analysis. The note with it: in vivo, time 7-24 hrs. Type of series: ADME, organism-based.
Series [4] can be described thus: Volume of distribution at steady state in Wistar Han rat at 1 mg/kg, iv at 7 to 24 hrs by LC-MS/MS analysis. It counts as ADME, organism-based. The following applies: in vivo, time 7-24 hrs, read-out: Vdss.
A short description of series [5]: Cmax in Wistar Han rat at 1 mg/kg, po at 7 to 24 hrs by LC-MS/MS analysis. The following applies: in vivo, time 7-24 hrs. It counts as ADME, organism-based.
Series [6] is described as follows: AUC in Wistar Han rat at 1 mg/kg, po at 7 to 24 hrs by LC-MS/MS analysis. It counts as ADME, organism-based. The note with it: in vivo, time 7-24 hrs.
The nature of series [7]: Unbound AUC in Wistar Han rat at 1 mg/kg, po at 7 to 24 hrs by LC-MS/MS analysis. Type of series: ADME, organism-based. The following applies: in vivo, time 7-24 hrs.
A short description of series [8]: Oral availability in Wistar Han rat at 1 mg/kg at 7 to 24 hrs by LC-MS/MS analysis. It counts as ADME, organism-based. The note with it: in vivo, time 7-24 hrs.
A short description of series [9]: in vitro. The following applies: PAMPA. Background: In PAMPA a lipid-coated filter parts donor from acceptor wells.
Series [10] is described as follows: Kinetic solubility of compound by CAD analysis. It counts as physicochemical. The note with it: read-out: Kinetic_solubility.
The nature of series [11]: Unbound AUC in Wistar Han rat at 2 mg/kg, po at 7 to 24 hrs by LC-MS/MS analysis. Type of series: ADME, organism-based. The note with it: in vivo, time 7-24 hrs.

Consider `COCCOc1cccc([C@H](CC(=O)O)CN2CC(C(F)(F)CCc3ccc4c(n3)NCCC4)C2)c1`, for which the chromatographic logD – broadly, lipophilicity estimated from chromatographic retention – in [1] was 3. Moreover, the pKa (usually the negative logarithm of the acid dissociation constant) in series [2] was 3.9. Besides, the MRT (in general, a mean duration of stay, worked out from the concentration-time curve) in series [3] came out at 1.7 h. Further, the Vd in [4] is 3 L/kg. Moreover, the Cmax (as a rule, the peak of the concentration-time curve) in series [5] is 20.4 ng/mL. In addition, the AUC (in general, the area under the concentration-time curve, a measure of exposure) in series [6] amounted to 95 ng·h/mL. Also, the fAUC in series [7] is 38 ng·h/mL. In series [8], the bioavailability (commonly dose-corrected exposure relative to a reference, in per cent) was 17%. Further, the Papp (usually the rate of passage across a membrane or cell layer, normalised by area and donor concentration) in [9] is 8.8 ×10⁻⁶ cm/s.
In turn, `CCOc1cccc(C(CC(=O)O)CN2CC(C(F)(F)CCc3ccc4c(n3)NCCC4)C2)c1` (racemic) came in with a chromatographic logD in [1] of 3.4. In [9], this molecule gave a Papp of 21 ×10⁻⁶ cm/s.
In the case of `Cc1cc(C)n(-c2cccc([C@H](CC(=O)O)CN3CC(CCCc4ccc5c(n4)NCCC5)C3)c2)n1`, the Papp in [9] was < 1 ×10⁻⁶ cm/s.
For `O=C(O)CC(CN1CC(C(F)(F)CCc2ccc3c(n2)NCCC3)C1)c1cccc2c1OCC2` (racemic), the chromatographic logD in [1] came to 3.1. Moreover, the Papp in series [9] worked out at 19 ×10⁻⁶ cm/s.
On the same counts, the results for `O=C(O)CC(CN1CC(C(F)(F)CCc2ccc3c(n2)NCCC3)C1)c1ccccc1` (racemic) are 3 and 21 ×10⁻⁶ cm/s.
In the same order, the values of `O=C(O)CC(CN1CC(C(F)(F)CCc2ccc3c(n2)NCCC3)C1)c1cccc(OC2CCOCC2)c1` (racemic) are 3.1 and 8.9 ×10⁻⁶ cm/s.
For the molecule `O=C(O)CC(CN1CC(C(F)(F)CCc2ccc3c(n2)NCCC3)C1)c1cccc(O[C@@H]2CCOC2)c1` (mixture of isomers), the chromatographic logD in series [1] is 2.8. This molecule also registered a Papp in series [9] of 8.2 ×10⁻⁶ cm/s.
On the same counts, the results for `O=C(O)CC(CN1CC(C(F)(F)CCc2ccc3c(n2)NCCC3)C1)c1ccc2c(c1)OCC2` (racemic) are 3 and 16 ×10⁻⁶ cm/s.
In the same order, the values of `O=C(O)CC(CN1CC(C(F)(F)CCc2ccc3c(n2)NCCC3)C1)c1ccnc(OC2CC2)c1` (racemic) are 2.7 and 10.4 ×10⁻⁶ cm/s.
Turning to `O=C(O)CC(CN1CC(C(F)(F)CCc2ccc3c(n2)NCCC3)C1)c1ccnc(C2CC2)c1` (racemic), the chromatographic logD in [1] was determined as 2.5. The molecule further had a Papp in [9] of 7.4 ×10⁻⁶ cm/s.
Consider `Cc1cc(C)n(-c2cccc(C(CC(=O)O)CN3CC(C(F)(F)CCc4ccc5c(n4)NCCC5)C3)c2)n1` (racemic), for which the chromatographic logD in series [1] is 3.3. Besides, in series [3], the MRT amounted to 0.2 h. Also, in [4], the Vd stood at 0.7 L/kg. The Cmax in [5] worked out at 12.4 ng/mL. In series [6], this molecule displayed an AUC of 14 ng·h/mL. Further, in series [7], the fAUC was determined as 0.6 ng·h/mL. In series [8], this molecule returned a bioavailability of 3%. The Papp in series [9] came out at 13 ×10⁻⁶ cm/s.
In turn, `COc1cc([C@H](CC(=O)O)CN2CC(C(F)(F)CCc3ccc4c(n3)NCCC4)C2)ccc1F` yielded a chromatographic logD in [1] of 3.1. Also, the pKa in series [2] was determined as 4. Moreover, the MRT in [3] was determined as 3.1 h. The Vd in [4] was 4.6 L/kg. In [6], this molecule showed an AUC of 881 ng·h/mL. In series [7], the fAUC came to 135 ng·h/mL. The molecule further returned a bioavailability in [8] of 94%. Also, the solubility kinetic in [10] is ≥ 159 µg/mL. Moreover, in series [9], the Papp came out at 16.3 ×10⁻⁶ cm/s.
As to `COc1cc(C(CC(=O)O)CN2CC(C(F)(F)CCc3ccc4c(n3)NCCC4)C2)ccc1Cl` (racemic), the chromatographic logD in series [1] was 3.6. This molecule also yielded a Papp in [9] of 28 ×10⁻⁶ cm/s.
Consider `COc1ncc(C(CC(=O)O)CN2CC(C(F)(F)CCc3ccc4c(n3)NCCC4)C2)cc1C` (racemic), for which the chromatographic logD in series [1] turned out to be 2.7. In addition, the MRT in series [3] was 2.9 h. Besides, in series [4], the Vd came out at 1.1 L/kg. In addition, the Cmax in series [5] was found to be 496 ng/mL. Further, the AUC in series [6] was 1510 ng·h/mL. The molecule further registered a fAUC in series [7] of 152 ng·h/mL. Besides, the bioavailability in [8] was determined as 57%. Further, the solubility kinetic in series [10] is ≥ 118 µg/mL. In series [9], the Papp was determined as 10.2 ×10⁻⁶ cm/s.
With `COc1cccc(C(CC(=O)O)CN2CC(C(F)(F)CCc3ccc4c(n3)NCCC4)C2)c1` (racemic), the chromatographic logD in series [1] turned out to be 3. For the same molecule, in series [9], the Papp is 20 ×10⁻⁶ cm/s.
On the same counts, the results for `O=C(O)CC(CN1CC(C(F)(F)CCc2ccc3c(n2)NCCC3)C1)c1cccc(OC2CC2)c1` (racemic) are 3.5 and 39 ×10⁻⁶ cm/s.
`Cc1cc(C)n(-c2cccc([C@@H](CC(=O)O)CN3CC(CCCc4ccc5c(n4)NCCC5)C3)c2)n1`: in series [9], the Papp is < 0.3 ×10⁻⁶ cm/s.
On the same count and under the same terms, as for `O=C(O)C[C@H](CN1CC[C@@H](CCc2ccc3c(n2)NCCC3)C1)c1cccc(N2CCOCC2)c1`, the figure is 2.7 ×10⁻⁶ cm/s.
In turn, `COc1cccc(C(CC(=O)O)CN2CC(C(F)(F)CCc3ccc4c(n3)NCCC4)C2)c1I` (racemic) gave a chromatographic logD in [1] of 3. For the same molecule, in [9], the Papp amounted to 15 ×10⁻⁶ cm/s.
In the case of `COc1cc(C(CC(=O)O)CN2CC(C(F)(F)CCc3ccc4c(n3)NCCC4)C2)ccc1F` (racemic), in series [1], the chromatographic logD was determined as 3.2. Moreover, in series [3], the MRT was determined as 3.8 h. Also, in series [4], the Vd came out at 2.4 L/kg. Besides, the highest level in series [5] (Cmax) was 313 ng/mL. In series [6], this molecule showed an AUC of 1370 ng·h/mL. Also, the fAUC in series [7] was determined as 212 ng·h/mL. Also, the bioavailability in series [8] came out at 79%. The molecule also gave an apparent permeability (Papp) in [9] of 23 ×10⁻⁶ cm/s.
In [1], `COCCOc1cccc([C@H](CC(=O)O)CN2CC[C@@](F)(CCc3ccc4c(n3)NCCC4)C2)c1` yielded a chromatographic logD of 2.9. Moreover, in series [2], the pKa came out at 4.1. In series [3], this molecule yielded an MRT of 3 h. The Vd in [4] turned out to be 3.6 L/kg. Also, the Cmax in series [5] was 530 ng/mL. Besides, the bioavailability in [8] came to 93%. The molecule further displayed a fAUC in series [11] of 280 ng·h/mL. In series [10], the solubility kinetic was ≥ 238 µg/mL. Further, in series [9], the Papp worked out at 14.6 ×10⁻⁶ cm/s.
In series [1], `COCCOc1cccc(C(CC(=O)O)CN2CC(OCc3ccc4c(n3)NCCC4)C2)c1` (racemic) registered a chromatographic logD of 2. In series [2], this molecule showed a pKa of 4. Moreover, the Papp in [9] was < 0.3 ×10⁻⁶ cm/s.
Take `COCCOc1cccc([C@H](CC(=O)O)CN2CC(SCCc3ccc4c(n3)NCCC4)C2)c1`: the chromatographic logD in series [1] came out at 2.4. Also, the pKa in series [2] is 4.3. The molecule also returned a Papp in [9] of 7.2 ×10⁻⁶ cm/s.
In series [1], `COc1ccc(F)c(C(CC(=O)O)CN2CC(C(F)(F)CCc3ccc4c(n3)NCCC4)C2)c1` (racemic) displayed a chromatographic logD of 3.3. Moreover, the MRT in series [3] is 4.2 h. Besides, in [4], the Vd came out at 1.6 L/kg. Also, the Cmax in series [5] was 739 ng/mL. Further, the AUC in series [6] came out at 2460 ng·h/mL. Besides, the fAUC in series [7] was 163 ng·h/mL. Besides, the bioavailability in [8] is 91%. In series [9], this molecule returned a Papp of 25 ×10⁻⁶ cm/s.
In [1], `O=C(O)CC(CN1CC(C(F)(F)CCc2ccc3c(n2)NCCC3)C1)c1cccc(N2CCOCC2)c1` (racemic) displayed a chromatographic logD of 2.7. Further, the Papp in series [9] worked out at 5.5 ×10⁻⁶ cm/s.
In the same order, the values of `COCCOc1cccc([C@@H](CC(=O)O)CN2CC(SCCc3ccc4c(n3)NCCC4)C2)c1` are 2.4 and 6.5 ×10⁻⁶ cm/s.
In the same order, the values of `COc1cc(C(CC(=O)O)CN2CC(C(F)(F)CCc3ccc4c(n3)NCCC4)C2)ccc1C#N` (racemic) are 2.9 and 5.5 ×10⁻⁶ cm/s.
For `COCCOc1cccc([C@@H](CC(=O)O)CN2CC(C(F)(F)CCc3ccc4c(n3)NCCC4)C2)c1`, the chromatographic logD in series [1] stood at 3. In series [9], this molecule displayed a Papp of 3.2 ×10⁻⁶ cm/s.
In the same order, the values of `O=C(O)CC(CN1CC(C(F)(F)CCc2ccc3c(n2)NCCC3)C1)c1cccc(O[C@H]2CCOC2)c1` (mixture of isomers) are 2.9 and 6.3 ×10⁻⁶ cm/s.
In the same order, the values of `O=C(O)CC(CN1CC(C(F)(F)CCc2ccc3c(n2)NCCC3)C1)c1cccc(C2CC2)c1` (racemic) are 3.7 and 43 ×10⁻⁶ cm/s.
Take `O=C(O)C[C@H](CN1CC(CCc2ccc3c(n2)NCCC3)C1)c1cccc(N2CCOCC2)c1`: the Papp in [9] was < 0.3 ×10⁻⁶ cm/s.
